Test results from ChEMBL document CHEMBL3637782, “GSK Tres Cantos Follow-up TB Screening Data” (2016).
Values after ≈ are worked out from the molar mass of the structure shown.

Tests used:
[1] = system: HepG2; assay: GSK_TB: The cytotoxicity against HepG2 cells expressed as IC50; type: functional, cell-based; details: Homo sapiens
[2] = GSK_TB: AVG_CHROM_LOGP; type: physicochemical
[3] = GSK_TB: Kinetic solubility of the compound in phosphate buffered saline at pH 7.4 after 1 hr by CLND method; type: physicochemical
[4] = system: Mycobacterium tuberculosis H37Rv; assay: GSK_TB: Inhibition of the intracellular growth of Mycobacterium tuberculosis (pXC50); type: functional, ATCC25618
[5] = GSK_TB: Lipophilicity, log D of the compound at pH 7.4 by ChromlogD analysis; type: physicochemical; details: buffer
[6] = system: Mycobacterium tuberculosis H37Rv; assay: GSK_TB: Minimum inhibitory concentration against H37Rv stain of Mycobacterium tuberculosis using MABA method; type: functional; details: ATCC25618

SMILES | IC50 [1] | Lipophilicity [2] | solubility kinetic at 1 h [3] | pXC50 [4] | Lipophilicity [5] | MIC [6]
CCCC/C=C/c1cc2ccncc2cc1OC1CCNCC1 | 16 µM | 7.3475 | 36 µg/mL (≈ 116 µM) | 5.9 | 3.61 | 1.6 µM (≈ 0.497 µg/mL)
O=C(NCc1ccco1)N1CCN(Cc2ccc(Cl)s2)CC1 | > 100 µM | 4.8996 | 98 µg/mL (≈ 288 µM) | 5.6 | 4.82 | 2 µM (≈ 0.68 µg/mL)
NCC(c1cccs1)S(=O)(=O)c1ccccc1 (stereo not drawn) | 32 µM | 2.5334 | ≥ 134 µg/mL | – | 2.5 | 2 µM (≈ 0.535 µg/mL)
NS(=O)(=O)c1ccc(Nc2cnc3ccccc3n2)cc1 | > 100 µM | 2.5171 | 112 µg/mL (≈ 373 µM) | <4.3 | 1.07 | 2 µM (≈ 0.601 µg/mL)
CNc1snc(C)c1C(=O)NCCOc1ccc(OC)cc1 | > 100 µM | 4.2469 | 121 µg/mL (≈ 376 µM) | 5.7 | 4.24 | 2.5 µM (≈ 0.804 µg/mL)
NC(=O)c1ccc(CN(C2CC2)S(=O)(=O)c2ccccc2F)cc1 | > 100 µM | 3.79 | 133 µg/mL (≈ 382 µM) | 6.7 | 3.75 | 3.75 µM (≈ 1.31 µg/mL)
NC(=O)c1cc2ccc(CC(=O)c3cccs3)cc2s1 | > 100 µM | 3.7247 | 8 µg/mL (≈ 26.5 µM) | 6 | 3.62 | 3.8 µM (≈ 1.15 µg/mL)
CCOCn1ccc(NS(=O)(=O)c2ccc(N)cc2)nc1=O | > 100 µM | 0.7057 | 52 µg/mL (≈ 160 µM) | 4.9 | 0.66 | 4.7 µM (≈ 1.52 µg/mL)
N#Cc1ncn(-c2ccc3nnc(C(F)(F)F)n3n2)n1 | > 100 µM | 3.3167 | ≥ 105 µg/mL | <4.3 | 3.31 | 5 µM (≈ 1.4 µg/mL)
Cn1cc(CCNC(=O)Nc2ccc(N3CCCCC3)nc2)cn1 | > 100 µM | 2.974 | – | 4.7 | 2.97 | 5 µM (≈ 1.64 µg/mL)
CC(C)N(C(=O)CNc1ccccc1Nc1ccccc1)c1ccccc1 | 50 µM | 8.1308 | 8 µg/mL (≈ 22.3 µM) | 5.7 | 7.73 | 5.6 µM (≈ 2.01 µg/mL)
CC1CC1c1ccc(CN2CCc3nc(Nc4ccccc4)sc3CC2)o1 (stereo not drawn) | 40 µM | 8.1798 | 54 µg/mL (≈ 142 µM) | – | 7.64 | 5.6 µM (≈ 2.13 µg/mL)
COC(=O)c1ccc(Oc2ccc(-c3csc(C)n3)cc2F)nn1 | > 100 µM | 4.8996 | 17 µg/mL (≈ 49.2 µM) | <4.3 | 4.83 | 5.6 µM (≈ 1.93 µg/mL)
CC(C)c1noc(N2CCC([C@H](C)Oc3cnc(-c4ccc(S(C)(=O)=O)c(F)c4)cn3)CC2)n1 | 25 µM | – | 13 µg/mL (≈ 26.6 µM) | 5.2 | 6.69 | 6 µM (≈ 2.94 µg/mL)
N#Cc1cccc(-c2ccc(NC[C@H]3CC[C@]4(CC3)CN(c3cccnn3)C(=O)O4)nc2)c1 | 40 µM | 4.9649 | 11 µg/mL (≈ 25 µM) | 5.6 | 4.96 | 10 µM (≈ 4.41 µg/mL)
Cc1ccc2c(c1)c(=O)cc(C(F)(F)F)n2CCNC(=O)c1ccccn1 | > 100 µM | 6.1236 | 6 µg/mL (≈ 16 µM) | 5.6 | 5.84 | 10 µM (≈ 3.75 µg/mL)
Fc1cccc(Oc2cc(C3CCCNC3)nc(-c3ccncc3)n2)c1 (stereo not drawn) | 50 µM | 5.1281 | 64 µg/mL (≈ 183 µM) | – | 2.9 | 10 µM (≈ 3.5 µg/mL)
Cc1c(C(=O)NCCOc2ccccc2)[nH]c2c1C(=O)CCC2 | 100 µM | 3.8226 | 46 µg/mL (≈ 147 µM) | 5 | 3.62 | 10 µM (≈ 3.12 µg/mL)
